According to ChEMBL document CHEMBL1135392, “Rational determination of transfer free energies of small drugs across the water-oil interface” (J Med Chem, 2002):

Tests used:
Settings in all cases: octanol/water
[1] = Partition coefficient (logP)
[2] = Partition coefficient (logP) (dodecane)
[3] = Partition coefficient across water-dodecane interface by statistical simulation

NS(=O)(=O)c1ccccc1 [BENZENESULFONAMIDE]
logP [1]: 0.33
logP [2]: -3.14

OCc1ccccc1 [BENZYL ALCOHOL]
logP [2]: -0.77

CN1C(=O)Cc2ccccc21
logP [1]: 0.63
logP [2]: -0.9

NC(=O)c1ccccc1 [BENZAMIDE]
logP [1]: 0.67
logP [2]: -2.67

OC[C@H]1O[C@H](O)[C@H](O)[C@@H](O)[C@@H]1O
logP [1]: -3.02
logP [2]: < -3

Cc1cc(=O)n(-c2ccccc2)n1C [ANTIPYRINE]
logP [2]: -2.52
logP [3]: -2.5

Oc1ccccc1 [PHENOL]
logP [1]: 1.5
logP [2]: -1.04

COc1ccccc1 [ANISOLE]
logP [2]: 2.06

c1ccc2nc3ccccc3cc2c1 [ACRIDINE]
logP [1]: 2.98
logP [2]: 2.32

NC(=O)c1ccccc1N [ANTHRANILAMIDE]
logP [1]: 0.32
logP [2]: -2.72

CC(=O)Nc1ccccc1 [ACETANILIDE]
logP [1]: 1.13
logP [2]: -1.76

O=C1Cc2ccccc2N1 [OXINDOLE]
logP [1]: 1.07
logP [2]: -1.95

Oc1cccc(Cl)c1
logP [2]: -0.34

O=[N+]([O-])c1ccccc1 [NITROBENZENE]
logP [1]: 1.84
logP [2]: 1.43

c1ccc2nccnc2c1 [QUINOXALINE]
logP [1]: 1.35
logP [2]: 0.51

CC(=O)c1ccc(S(C)(=O)=O)cc1
logP [1]: 0.33
logP [2]: -1.56

CC(=O)c1ccccc1 [ACETOPHENONE]
logP [1]: 1.56
logP [2]: 0.94

Brc1cnc2ccccc2c1
logP [1]: 3.11
logP [2]: 2.59
